This is an account of results in patent US20050288502A1, “Substituted heterocyclic compounds and methods of use” (priority 2004, published 2005).

This test relates to TNF-α. Nature of the test: Lipopolysaccharide-activated THP1 cell TNF production assay (LPS induced TNF release). The format is cell-based. The note with it: Homo sapiens, THP-1; THP1 cells, bacterial LPS, secreted TNF-α after 3 h at 37° C. As for the experimental part:
Lipopolysaccharide-Activated THP1 Cell TNF Production Assay
THP1 cells are resuspended in fresh THP1 media (RPMI 1640, 10% heat-inactivated FBS, 1XPGS, 1XNEAA, plus 30 μM βME) at a concentration of 1E6/mL. One hundred microliters of cells per well are plated in a polystyrene 96-well tissue culture. One microgram per mL of bacterial LPS is prepared in THP1 media and is transferred to the wells. Test compounds are dissolved in 100% DMSO and are serially diluted 3 fold in a polypropylene 96-well microtiter plate (drug plate). HI control and LO control wells contain only DMSO. One microliter of test compound from the drug plate followed by 10 μL of LPS are transferred to the cell plate. The treated cells are induced to synthesize and secrete TNF-α at 37° C. for 3 h. Forty microliters of conditioned media are transferred to a 96-well polypropylene plate containing 110 μL of ECL buffer (50 mM Tris-HCl pH 8.0, 100 mM NaCl, 0.05% Tween 20, 0.05% NaN3 and 1% FBS) supplemented with 0.44 nM MAB610 monoclonal Ab (R&D Systems), 0.34 nM ruthenylated AF210NA polyclonal Ab (R&D Systems) and 44 μg/mL sheep anti-mouse M280 Dynabeads (Dynal). After a 2 h incubation at room temperature with shaking, the reaction is read on the ECL M8 Instrument (IGEN Inc.). A low voltage is applied to the ruthenylated TNF-α immune complexes, which in the presence of TPA (the active component in Origlo), results in a cyclical redox reaction generating light at […]. The amount of secreted TNF-α: in the presence of compound compared with that in the presence of DMSO vehicle alone (HI control) is calculated using the formula:% control (POC)=(cpd−average LO)/(average HI−average LO)*100. Data (consisting of POC and inhibitor concentration in μM) is fitted to a 4-parameter equation (y=A+((B−A)/(1+((x/C)ˆD))), where A is the minimum y (POC) value, B is the maximum y (POC), C is the x (cpd concentration) at the point of inflection and D is the slope factor) using a Levenburg-Marquardt non-linear regression algorithm.
`c1ccc(CCNc2nccc(Nc3nc(-c4ccccc4)cc4ncnn34)n2)cc1` [Example 4, N^2-phenethyl-N^4-(7-phenyl-[1,2,4]triazolo[1,5-c]pyrimidine-5-yl)-pyrimidine-2,4-diamine] yielded an IC50 not above 20 µM.
Compound `C[C@@H](Cc1cccc(S(=O)(=O)N(C)CCN(C)C)c1)Nc1nccc(N(C)c2nc(-c3ccccc3)cc3ncnn23)n1` yielded an IC50 not above 20 µM.
The figure for `CC(Cc1cccc(C(C)N)c1)Nc1nccc(N(C)c2nc(-c3ccccc3)cc3ncnn23)n1` (stereo not drawn) [N^2-{2-[3-(1-amino-ethyl)-phenyl]-1-methyl-ethyl}-N^4-methyl-N^4-(7-phenyl-[1,2,4]triazolo[1,5-c]pyrimidine-5-yl)-pyrimidine-2,4-diamine] is not above 20 µM; for `CC(Cc1cccc(CN)c1)Nc1nccc(N(C)c2cc(-c3ccccc3)cc3ncnn23)n1` (stereo not drawn) [N^2-[2-(3-Aminomethyl-phenyl)-1-methyl-ethyl]-N^4-methyl-N^4-(7-phenyl-[1,2,4]triazolo[1,5-a]pyridin-5-yl)-pyrimidine-2,4-diamine] it is not above 20 µM; for `C[C@@H](Cc1cccc(S(N)(=O)=O)c1)Nc1nccc(N(C)c2nc(-c3ccccc3)cc3ncnn23)n1` it is not above 20 µM.
`CC(Cc1cccc(CN)c1)Nc1nccc(N(C)c2nc(-c3ccccc3)cc3nccn23)n1` (stereo not drawn) [N2-[2-(3-Aminomethyl-phenyl)-1-methyl-ethyl]-N4-methyl-N4-(7-phenyl-imidazo[1,2-c]pyrimidin-5-yl)-pyrimidine-2,4-diamine] showed an IC50 not above 20 µM.
On to `CC(Cc1ccccc1)Nc1nccc(Nc2nc(-c3ccccc3)cc3ncnn23)n1` (stereo not drawn) [N^2-(1-methyl-2-phenyl-ethyl)-N^4-(7-phenyl-[1,2,4]triazolo[1,5-c]pyrimidine-5-yl)-pyrimidine-2,4-diamine], for which the half-inhibitory concentration (IC50) is not above 20 µM.
`Cc1cc(N(C)c2nc(-c3ccccc3)cc3ncnn23)nc(N[C@@H](C)Cc2cccc([C@@H](C)N)c2)n1` [Example 35] gave a 50% inhibitory concentration (IC50) not above 20 µM.
As to `CC(Cc1cccc(CO)c1)Nc1nccc(N(C)c2nc(-c3ccccc3)cc3nccn23)n1` (stereo not drawn) [[3-(2-{4-[Methyl-(7-phenyl-imidazo[1,2-c]pyrimidin-5-yl)-amino]-pyrimidin-2-ylamino}-propyl)-phenyl]-methanol], the IC50 was not above 20 µM.
In turn, `C[C@H](Nc1nccc(Nc2nc(-c3ccccc3)cc3ncnn23)n1)c1ccccc1` [Example 7, (S)—N^2-(1-phenyl-ethyl)-N^4-(7-phenyl-[1,2,4]triazolo[1,5-c]pyrimidine-5-yl)-pyrimidine-2,4-diamine] had a half-maximal inhibitory concentration (IC50) not above 20 µM.
On to `C[C@@H](Cc1ccccc1)Nc1nccc(N(C)c2nc(-c3ccccc3)cc3ncnn23)n1` [Example 10, N^4-methyl-N^2-(S)-(1-methyl-2-phenyl-ethyl)-N^4-(7-phenyl-[1,2,4]triazolo[1,5-c]pyrimidine-5-yl)-pyrimidine-2,4-diamine], for which the half-maximal inhibitory concentration (IC50) was not above 20 µM.
In turn, `C[C@@H](Cc1cccc(CO)c1)Nc1nccc(N(C)c2nc(-c3ccccc3)cc3ncnn23)n1` [(S)-[3-(2-{4-[methyl-(7-phenyl-[1,2,4]triazolo[1,5-c]pyrimidine-5-yl)-amino]-pyrimidin-2-ylamino}-propyl)-phenyl]-methanol] yielded an IC50 not above 20 µM.
The compound `CN(c1ccnc(NC2CCN(C(=O)OC(C)(C)C)CC2)n1)c1nc(-c2ccccc2)cc2ncnn12` [4-{4-[methyl-(7-phenyl-[1,2,4]triazolo[1,5-c]pyrimidin-5-yl)-amino]-pyrimidin-2-ylamino}-piperidine-1-carboxylic acid tert-butyl ester] yielded an IC50 not above 20 µM.
For the compound `C[C@@H](Nc1nccc(Nc2nc(-c3ccccc3)cc3ncnn23)n1)c1ccccc1` [(R)-N^2-(1-Phenyl-ethyl)-N^4-(7-phenyl-[1,2,4]triazolo[1,5-c]pyrimidine-5-yl)-pyrimidine-2,4-diamine], the concentration for half-maximal inhibition (IC50) is not above 20 µM.
`C[C@@H](Cc1cccc(CN)c1)Nc1nccc(N(C)c2nc(-c3ccccc3)cc3ncnn23)n1` [(S)-N^2-[2-(3-aminomethyl-phenyl)-1-methyl-ethyl]-N^4-methyl-N^4-(7-phenyl-[1,2,4]triazolo[1,5-c]pyrimidin-5-yl)-pyrimidine-2,4-diamine] gave a half-maximal inhibitory concentration (IC50) not above 20 µM.
On to `CC(Cc1cccc(CO)c1)Nc1nccc(N(C)c2nc(-c3ccccc3)cc3ncnn23)n1` (stereo not drawn) [[3-(2-{4-[methyl-(7-phenyl-[1,2,4]triazolo[1,5-c]pyrimidine-5-yl)-amino]-pyrimidin-2-ylamino}-propyl)-phenyl]-methanol], for which the IC50 was not above 20 µM.
`Cc1cc(N(C)c2nc(-c3ccccc3)cc3ncnn23)nc(N[C@@H](C)Cc2cccc(CN)c2)n1` registered an IC50 not above 20 µM.
In the case of `CC(Cc1cccc(CN)c1)Nc1nccc(N(C)c2nc(-c3ccccc3)cc3ncnn23)n1` (stereo not drawn) [N^2-[2-(3-aminomethyl-phenyl)-1-methyl-ethyl]-N^4-methyl-N^4-(7phenyl-[1,2,4]triazolo[1,5-c]pyrimidin-5-yl)-pyrimidine-2,4-diamine], the IC50 is not above 20 µM.
